Laboratory results: PubChem BioAssay (NCI)
Where “and” joins values, the source holds several entries; their conditions need not be identical. Equal values may be shown once.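 Each compound was tested at five concentrations against cells in 96-well plates for 48 hours. GI50 is the concentration that inhibits growth by half. At the TGI there is no net growth.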

What was measured:
Experiment in all cases: NCI tumour cell line growth inhibition, 48 h
[1] = system: HL-60(TB) leukemia
[2] = system: MALME-3M melanoma
[3] = system: HS 578T breast
[4] = system: OVCAR-5 ovarian
[5] = system: SR leukemia
[6] = system: IGROV1 ovarian
[7] = system: MDA-MB-231 breast
[8] = system: HOP-62 NSCLC
[9] = system: SF-268 CNS
[10] = system: HCC-2998 colon

Structure (SMILES)	TGI [1]	TGI [2]	TGI [3]	TGI [4]	TGI [5]	TGI [6]	TGI [7]	TGI [8]	TGI [9]	TGI [10]	GI50 [1]	GI50 [2]	GI50 [4]	GI50 [5]	GI50 [9]	GI50 [10]
CC(C)C(C/C=C1/CC(CO)(COC(=O)CC(C(C)C)C(C)C)OC1=O)C(C)C (centres undefined)	11.7 µM	23.1 µM	2.29 µM	22.1 µM	> 50.3 µM	31.1 µM	18.5 µM	18.3 µM	23.1 µM	13.3 µM						
C=C=C(C)[Si](C)(C)C	> 100 µM	> 100 µM	> 100 µM	> 100 µM	> 100 µM	> 100 µM	> 100 µM	> 100 µM	> 100 µM	> 100 µM						
c1ccc(N=C2SC(=NNc3ccccc3)SC2=Nc2ccccc2)cc1	> 100 µM	> 100 µM	> 100 µM	> 100 µM	> 100 µM	> 100 µM	> 100 µM	> 100 µM	> 100 µM	> 100 µM						
NNC(=O)c1c(Cl)c(Cl)c(Cl)c(Cl)c1-c1nc2ccccc2[nH]1	38.1 µM	37.9 µM	86.8 µM	> 100 µM	15.6 µM	27.7 µM	> 100 µM	21.4 µM	> 100 µM	22.5 µM						
O=C1NC2(CCCCC2)N=C2C(Cl)CCCC12Cl (centres undefined)	> 100 µM	> 100 µM	> 100 µM	> 100 µM	> 100 µM	> 100 µM	> 100 µM	> 100 µM	> 100 µM	> 100 µM						
O=C(CN1CCN(C(=O)OCc2ccccc2)CCN(CC(=O)N2CCCCC2)CCN(C(=O)OCc2ccccc2)CC1)N1CCCCC1	> 35.4 µM	23.5 µM	35.2 µM	48.8 µM	11.8 µM	28.9 µM	33.7 µM	42.2 µM	31.8 µM	25.2 µM						
Cc1ccc(/C=C/C(=O)c2c([O-])on[n+]2-c2ccccc2)cc1	6.55 µM	98.3 µM	> 25.8 µM	15.5 µM	> 27.5 µM	8.67 µM	> 75.2 µM	24.9 µM	> 37.5 µM	4.15 µM						
O=C(Cn1nc(Br)c(Br)c1Br)c1ccccc1	30.5 µM	72.4 µM	> 100 µM	> 100 µM	25.9 µM	> 100 µM	84.5 µM	> 100 µM	> 100 µM	> 100 µM						
O=C1c2ccccc2CC12Cc1cc3c(cc1C2=O)CCC3 (centres undefined)	> 100 µM	> 100 µM	> 100 µM	> 100 µM	> 100 µM	> 100 µM	> 100 µM	> 100 µM	> 100 µM	> 100 µM						
COc1ccc(C2SCC(=O)N2c2ccc(-c3ccc(-n4c(-c5ccccc5)nc5ccccc5c4=O)cc3)cc2)cc1 (centres undefined)	> 100 µM	> 100 µM	> 100 µM	87.2 µM	> 100 µM	> 100 µM	> 100 µM	> 100 µM	> 100 µM	> 100 µM						
O=C(CSc1nc(=O)[nH]c2nc[nH]c12)Nc1ccccc1	> 100 µM	> 100 µM	> 100 µM	> 100 µM	> 100 µM	> 100 µM	> 100 µM	> 100 µM	> 100 µM	> 100 µM						
N#CCC(=O)Nn1c(CC#N)nnc1Cc1ccccc1	> 100 µM	> 100 µM	> 100 µM	> 100 µM	> 100 µM	> 100 µM	> 100 µM	> 100 µM	> 100 µM	> 100 µM						
Cc1nn(C(=O)c2ccc(Cl)cc2)c2c1C(c1ccc([N+](=O)[O-])cc1)SC(N)=N2 (centres undefined)	> 10 µM	> 10 µM	> 10 µM	> 10 µM	> 10 µM	> 10 µM	> 10 µM	> 10 µM	> 10 µM	> 10 µM						
N#Cc1[nH]c(=O)n(-c2ccc(Cl)cc2)c1N	> 10 µM	> 10 µM	> 10 µM	> 10 µM	> 10 µM	> 10 µM	> 10 µM	> 10 µM	> 10 µM	> 10 µM						
CN1CCC2(CC1)C(=O)N(N1CCCCCC1)C(=O)N2c1ccccc1	> 100 µM	> 100 µM	> 100 µM	> 100 µM	> 100 µM	> 100 µM	> 100 µM	> 100 µM	> 100 µM	> 100 µM						
CCCN1C(=O)CCC2=C1CCc1c2ccc(Cl)c1Cl	86.2 µM	> 100 µM	22 µM	82 µM	> 100 µM	> 100 µM	48.7 µM	> 100 µM	> 100 µM	49.8 µM						

Structure (SMILES)	TGI [1]	TGI [2]	TGI [3]	TGI [4]	TGI [5]	TGI [6]	TGI [7]	TGI [8]	TGI [9]	TGI [10]	GI50 [1]	GI50 [2]	GI50 [4]	GI50 [5]	GI50 [9]	GI50 [10]
COc1cc([C@@H]2c3cc4c(cc3[C@@H](NCCNCCO)[C@H]3COC(=O)[C@H]23)OCO4)cc(OC)c1O		24.4 µM and 10.8 µM	19.2 µM and 5.4 µM	51.2 µM and 25.5 µM		20.2 µM and 12 µM	21.6 µM	5.18 µM and 6.52 µM	51.8 µM	32.2 µM and 12.1 µM	0.173 µM and 0.0466 µM	2.72 µM and 1.2 µM	14 µM and 5.18 µM	0.303 µM	0.761 µM and 1.59 µM	3.39 µM and 1.58 µM
CC(=O)OCC1OC(n2c(N)c(C#N)c(-c3ccccc3)c(C#N)c2=S)C(OC(C)=O)C(OC(C)=O)C1OC(C)=O (centres undefined)	> 100 µM	> 100 µM	54.1 µM	> 100 µM	> 100 µM	> 100 µM	> 100 µM	45 µM	> 77.5 µM	> 100 µM						
O=C(Oc1ccccc1)c1cc2cc(CCl)ccc2oc1=O	> 100 µM	8.11 µM	52.8 µM	> 100 µM	> 100 µM	> 100 µM	82 µM	> 100 µM	73.9 µM	47.1 µM						
O=C1C2C=CC1C1C(=O)OC(=O)C21 (centres undefined)	> 100 µM	> 100 µM	> 100 µM	> 100 µM	> 100 µM	> 100 µM	> 100 µM	> 100 µM	> 100 µM	> 100 µM						
CC(C)CCC1(O)O[C@H]2C[C@H]3[C@@H]4CCC5CC(=O)C=C[C@]5(C)[C@H]4CC[C@]3(C)[C@H]2[C@@H]1C (some centres undefined)	17.7 µM	29.5 µM	7.31 µM	26.2 µM	22.6 µM	30.3 µM	28.2 µM	28.4 µM	28.2 µM	5.86 µM						
O=C1OC(c2ccc(O)c(Cl)c2)(c2ccc(O)c(Cl)c2)c2ccc(Br)c3cccc1c23 (tested in a mixture with another compound)	41.8 µM	39.3 µM	> 53.1 µM	34.5 µM	45.4 µM	44.5 µM	29.4 µM	40.3 µM	31.3 µM	35 µM	17.5 µM					
O=C1c2ccccc2-c2nc(-c3cccnc3)cc3c2c1nc1ccccc13	> 100 µM	> 100 µM	> 100 µM	> 100 µM	> 100 µM	> 100 µM	> 100 µM	> 100 µM	> 100 µM	> 100 µM						
CC(=O)Oc1ccc2c(c1)c1c(=O)oc(N(C)C)nc1n2Cc1ccccc1	> 100 µM	> 100 µM	> 100 µM	> 100 µM	> 100 µM	> 100 µM	> 100 µM	> 100 µM	> 100 µM	> 100 µM						
COc1cc(-c2[nH]ccc2Cl)oc1C1=C2N=C3C=C2C(C(C)C)C1CCCCCCCC3 (centres undefined)	0.943 µM	2.49 µM	1.41 µM	2.05 µM	0.739 µM	2.71 µM	1.56 µM	2.07 µM	4.1 µM	1.77 µM						
Cc1nc2c(o1)C(=O)c1ccccc1/C2=N/c1ccccn1	44.2 µM	25 µM	41.1 µM	32.4 µM	97.3 µM	51.4 µM	69.3 µM	37.8 µM	68.9 µM	> 100 µM						
CN1C(c2ccccc2)=CC(=O)C(O)=C(c2ccccc2)S1(=O)=O	> 100 µM	> 100 µM	> 100 µM	> 100 µM	> 100 µM	> 100 µM	> 100 µM	> 100 µM	> 100 µM	> 100 µM						
NC1CC(=O)c2csc(Br)c21 (centres undefined)	61.3 µM	33.9 µM	46.5 µM	29.3 µM	47.5 µM	25.4 µM	> 53.6 µM	> 72 µM	44.1 µM	34.6 µM						
COC(=O)C1=Nc2c(C)nn(-c3ccccc3)c2N=C(c2ccc(C)cc2)C1	> 10 µM	> 10 µM	> 10 µM		> 10 µM	> 10 µM	> 10 µM	> 10 µM	> 10 µM	> 10 µM						
CC(=O)Nc1ccc(CNc2cc(=O)[nH]c(=O)[nH]2)cc1	> 100 µM	> 100 µM	> 100 µM	> 100 µM	> 100 µM	> 100 µM	> 100 µM	> 100 µM	> 100 µM	> 100 µM						
OCCN(CCO)c1ccc2c(C(F)(F)F)cc(C(F)(F)F)nc2n1	> 100 µM	> 100 µM	> 100 µM	> 100 µM	> 100 µM	> 100 µM	> 100 µM	> 100 µM	> 100 µM	> 100 µM						
